Reference: US20110039763A1, “TARGETED ANTIMICROBIAL MOIETIES” (C3 JIAN, INC., priority 2009, published 2011)
Ends that are not written are not given here.

Key:
[1] = system: microorganisms; experiment: Peptide activities: targeting/binding, antimicrobial, growth or phenotype altering (Tables 7, 8); format: cell-based; design: key: B: targeting/binding activity;; M: antimicrobial activity;; G: Growth or phenotype altering; conditions: peptides having multiple activities
[2] = system: microorganisms; experiment: Morphology, biofilm and growth disrupting peptides (Table 5); format: cell-based; design: key: A: Peptide aggregates; B: Less hyphal formation; Clumps; Diffuse clumps and small polyps; F: Diffuse growth; H: Thin; I: Growth inhibition; Microcolony formation; Rippled; Small polyps; Thick; W: Halo formation on top, microlonies on bottom
Description: In certain embodiments peptides that induce alterations in phenotype or other biological activities can also be used as antimicrobial effector moieties.

Substance	Activities [1]	Organism, effect ([2]; C. jejuni)	Organism, effect ([2]; E. coli)	Organism, effect ([2]; E. faecalis)	Organism, effect ([2]; MRSA)	Organism, effect ([2]; S. epidermidis)	Organism, effect ([2]; S. pneumoniae)	Organism, effect ([2]; C. albicans)	Organism, effect ([2]; P. aeruginosa)	Organism, effect ([2]; M. luteus)	Organism, effect ([2]; S. mutans)	Organism, effect ([2]; B. subtilis)	Organism, effect ([2]; C. jeikeium)	Organism, effect ([2]; P. mirabilis)
PF-469: peptide having multiple activities (YKVNYNNIDNHFNTLRH; Peptide with targeting and/or antimicrobial activity)	G B	C. jejuni (D)	E. coli (C)	E. faecalis (D)	MRSA (D)	S. epidermidis (D)	S. pneumoniae (D)							
PF-474: peptide having multiple activities (MHRNLVLVKMEPIPHIMIIANQIGIIIEKA; Peptide with targeting and/or antimicrobial activity)	G B	C. jejuni (D)	E. coli (C)	E. faecalis (C)	MRSA (D)	S. epidermidis (C)	S. pneumoniae (D)	C. albicans (B)	P. aeruginosa (A)					
PF-478: peptide having multiple activities (HLFILKSHLKPFPPFRYTYD; Peptide with targeting and/or antimicrobial activity)	G B		E. coli (C)		MRSA (H)	S. epidermidis (C)	S. pneumoniae (C)							
PF-479: peptide having multiple activities (AYILKRREEKNK; Peptide with targeting and/or antimicrobial activity)	G B						S. pneumoniae (C)							
PF-482: peptide having multiple activities (LVGYVRTSGTVRSYKIN; Peptide with targeting and/or antimicrobial activity)	G B						S. pneumoniae (S)							
PF-516: peptide having multiple activities (ASKQASKQASKQASKQ; Peptide with targeting and/or antimicrobial activity)	G						S. pneumoniae (H)							
PF-526: peptide having multiple activities (VLLLFIFQPFQKQLL-NH2)	G B		E. coli (R)		MRSA (C)	S. epidermidis (C)	S. pneumoniae (R)	C. albicans (C)						
PF-537: peptide having multiple activities (LANDYYKKTKKSW; Peptide with targeting and/or antimicrobial activity)	G B						S. pneumoniae (C)							
PF-539: peptide having multiple activities (SIILTKKKRRKIPLSIDSQIYKYTFKQ; Peptide with targeting and/or antimicrobial activity)	G B				MRSA (H)		S. pneumoniae (A)							
PF-543: peptide having multiple activities (NILFGIIGFVVAMTAAVIVTAISIAK; Peptide with targeting and/or antimicrobial activity)	G B		E. coli (C)		MRSA (D)	S. epidermidis (D)	S. pneumoniae (D)			M. luteus (C)	S. mutans (S)			
PF-544: peptide having multiple activities (FGEKQMRSWWKVHWFHP; Peptide with targeting and/or antimicrobial activity)	G B			E. faecalis (R)	MRSA (D)	S. epidermidis (D)	S. pneumoniae (M)							
PF-548: peptide having multiple activities (ARPIADLIHFNSTTVTASGDVYYGPG; Peptide with targeting and/or antimicrobial activity)	G B	C. jejuni (D)			MRSA (M)	S. epidermidis (M)	S. pneumoniae (D)			M. luteus (A)		B. subtilis (C)	C. jeikeium (R)	
PF-556: peptide having multiple activities (SLQIRMNTLTAAKASIEAA; Peptide with targeting and/or antimicrobial activity)	G B	C. jejuni (R)		E. faecalis (A)	MRSA (M)	S. epidermidis (A)	S. pneumoniae (D)			M. luteus (A)		B. subtilis (C)	C. jeikeium (D)	
PF-562: peptide having multiple activities (TPEQWLERSTVVVTGLLNRK; Peptide with targeting and/or antimicrobial activity)	G B	C. jejuni (R)			MRSA (M)	S. epidermidis (A)	S. pneumoniae (D)			M. luteus (R)				
PF-577: peptide having multiple activities (PFETRESFRVPVIGILGGWDYFMHP; Peptide with targeting and/or antimicrobial activity)	G B	C. jejuni (R)	E. coli (A)	E. faecalis (A)	MRSA (M)	S. epidermidis (A)	S. pneumoniae (R)		P. aeruginosa (A)					
PF-578: peptide having multiple activities (QKANLRIGFTYTSDSNVCNLTFALLGSK; Peptide with targeting and/or antimicrobial activity)	G B		E. coli (C)		MRSA (C)	S. epidermidis (D)	S. pneumoniae (D)			M. luteus (C)	S. mutans (D)			P. mirabilis (C)
PF-581: peptide having multiple activities (WTARARR; Peptide with targeting and/or antimicrobial activity)	G B	C. jejuni (A)		E. faecalis (A)	MRSA (A)		S. pneumoniae (A)							
PF-586: peptide having multiple activities (chain 1 FFNQANYFFKEF; chain 2 FFNQANYFFKEF; Peptide with targeting and/or antimicrobial activity)	G B	C. jejuni (D)	E. coli (C)	E. faecalis (D)	MRSA (D)	S. epidermidis (C)	S. pneumoniae (D)							
PF-592: peptide having multiple activities (chain 1 IMKNYKYFKLFIVKYALF; chain 2 IMKNYKYFKLFIVKYALF; Peptide with targeting and/or antimicrobial activity)	G B	C. jejuni (S)	E. coli (C)	E. faecalis (D)	MRSA (D)	S. epidermidis (M)	S. pneumoniae (D)							
PF-595: peptide having multiple activities (chain 1 LQNKIYELLYIKERSKLCS; chain 2 LQNKIYELLYIKERSKLCS; Peptide with targeting and/or antimicrobial activity)	G B	C. jejuni (D)	E. coli (C)	E. faecalis (D)	MRSA (D)	S. epidermidis (C)	S. pneumoniae (R)							
